Assay results published in patent US20260157986A1, “METHODS OF TREATMENT OF PRIMARY BILIARY CHOLANGITIS” (Ipsen Pharma, priority 2024, published 2026).

Columns and labels:
patients with PBC [1] = details: in vivo; cited from earlier work
subjects with PBC = assay: Clinical study, not further specified (Summary); type: in vivo, human; details: treatment of subjects with elafibranor
[2] = tested on: participants with PBC and baseline ALP >1×ULN and <1.67×ULN; assay: Phase IIIb randomised, double-blind, placebo-controlled, two-arm study (Example 1); type: in vivo, human; details: 80 mg once daily versus placebo; baseline ALP more than 1×ULN and at most 1.67×ULN
[3] = tested on: participants with PBC with inadequate response or intolerance to UDCA; assay: ELATIVE phase III double-blind, randomised, placebo-controlled study (GFT505B-319-1, NCT04526665); type: in vivo, human
Description: This was assessed based on the primary endpoint, which combined reductions in ALP and total bilirubin (TB).

patients with PBC [4] = details: cited from earlier work

In the case of C[C@H](CCC(=O)O)[C@H]1CC[C@H]2[C@@H]3[C@@H](O)C[C@@H]4C[C@H](O)CC[C@]4(C)[C@H]3CC[C@]12C [UDCA, Ursodeoxycholic acid], the “proportion of PBC patients intolerant to UDCA” value (patients with PBC [1]) is listed as “up to 5%”.
In the case of CSc1ccc(C(=O)/C=C/c2cc(C)c(OC(C)(C)C(=O)O)c(C)c2)cc1 [elafibranor], the “biochemical markers in the plasma” value (subjects with PBC) is reported as “relevant reduction of biochemical markers in the plasma”, the “prevention of clinical outcome events showing disease worsening (including progression leading to liver transplant or death)” value [2] is reported as “better than placebo” and the “improvement in cholestasis (primary endpoint combining reductions in ALP and total bilirubin)” value ([3]; compared to placebo, double-blind period) is reported as “greater improvement in cholestasis compared to placebo”. For the same compound, the safety and tolerability ([3]; patients with PBC) was “safe and well-tolerated”.
In the case of CC[C@H]1[C@@H](O)[C@@H]2[C@H](CC[C@]3(C)[C@@H]([C@H](C)CCC(=O)O)CC[C@@H]23)[C@@]2(C)CC[C@@H](O)C[C@@H]12 [obeticholic acid], the liver failure (patients with PBC [4]; patients with advanced cirrhosis) is given as “reports of patients with advanced cirrhosis developing liver failure” and the pruritus (patients with PBC [4]; second line therapy) is given as “clinically significant pruritus has been reported in a significant portion of patients”.
